Earlier results, collected in patent US9110064B2, “Methods for diagnosis and treatment of endometrial cancer” (THE REGENTS OF THE UNIVERSITY OF CALIFORNIA, priority 2005, dated 2015).

Tested on: PMP22
Conditions: patients with Charcot Marie Tooth Type I

In the case of `CC(=O)[C@H]1CC[C@H]2[C@@H]3CCC4=CC(=O)CC[C@]4(C)[C@H]3CC[C@]12C` [progesterone], the PMP22 levels is listed as “restore normal PMP22 levels” and the disease phenotype is listed as “ameliorated the disease phenotype”.
